In patent publication US20140345648A1, “Oral Healthcare, Products and Methods Therefor” (OZOSPA HOLDINGS LIMITED, priority 2011, published 2014):

Tests used:
[1] = system: Porphyromonas gingivalis ATCC 3327; assay: Challenge test of powder product, liquid product, xylitol and bicarbonate of soda (based on B.S.3286:1960), Example 4; type: cell-based; settings: for Porphyromonas gingivalis ATCC 3327 Population Levels T = 0 / Porphyromonas gingivalis ATCC 3327 Population Levels T = 2 / Porphyromonas gingivalis ATCC 3327 Population Levels T = 1 / Porphyromonas gingivalis ATCC 3327 Population Levels T = 4 / Porphyromonas gingivalis ATCC 3327 Population Levels T = 3 / Porphyromonas gingivalis ATCC 3327 Population Levels T = 6 / Porphyromonas gingivalis ATCC 3327 Population Levels T = 5 / Porphyromonas gingivalis ATCC 3327 Population Levels T = 8 / Porphyromonas gingivalis ATCC 3327 Population Levels T = 7: Table 7; for Porphyromonas gingivalis ATCC 3327 Population Levels T = 0: Day 0, powders 1:5, liquid neat; for Porphyromonas gingivalis ATCC 3327 Population Levels T = 2: Day 1, 2 hrs after 10 mls of fresh sol'n added; for Porphyromonas gingivalis ATCC 3327 Population Levels T = 1: Day 1, prior to 10 mls of fresh sol'n added; for Porphyromonas gingivalis ATCC 3327 Population Levels T = 4: Day 2, 2 hrs after 10 mls of fresh sol'n added; for Porphyromonas gingivalis ATCC 3327 Population Levels T = 3: Day 2, prior to 10 mls of fresh sol'n added; for Porphyromonas gingivalis ATCC 3327 Population Levels T = 6: Day 3, 2 hrs after 10 mls of fresh sol'n added; for Porphyromonas gingivalis ATCC 3327 Population Levels T = 5: Day 3, prior to 10 mls of fresh sol'n added; for Porphyromonas gingivalis ATCC 3327 Population Levels T = 8: Day 4, 2 hrs after 10 mls of fresh sol'n added; for Porphyromonas gingivalis ATCC 3327 Population Levels T = 7: Day 4, prior to 10 mls of fresh sol'n added; for effect against the Porphyromonas gingivalis population (in words): controlled laboratory test
Description: (§1) The powder product and the liquid product were challenge tested against the organisms Streptococcus mutans and Porphyromonas gingivalis. […] The challenge method used was based on B.S.3286: 1960 “Method for Laboratory Evaluation of Disinfectant Activity of Quaternary Ammonium Compounds by Suspension Test Procedure”. This standard describes a test procedure for the laboratory evaluation of the activity of disinfectants, in which a suspension of viable microorganisms is added to solutions containing a pre-determined concentration of the disinfectant and the numbers of organisms surviving after a period of time is determined. A 1:5 solution of the powders with sterile deionised water was used for the challenge testing. The liquid product was used neat. The following organisms were used for the challenge testing: […] A modification will be made to the method by the addition of 10 ml of each solution each day, for 4 days. (The blank solution would have 10 ml of Neutralising buffer added.) […]

[2] = system: Streptococcus mutans ATCC 25175; assay: as above; type: cell-based; settings: for Streptococcus mutans ATCC 25175 Population Levels T = 0: Day 0, powders 1:5, liquid neat; for Streptococcus mutans ATCC 25175 Population Levels T = 2: Day 1, 2 hrs after 10 mls of fresh sol'n added; for Streptococcus mutans ATCC 25175 Population Levels T = 1: Day 1, prior to 10 mls of fresh sol'n added; for Streptococcus mutans ATCC 25175 Population Levels T = 4: Day 2, 2 hrs after 10 mls of fresh sol'n added; for Streptococcus mutans ATCC 25175 Population Levels T = 3: Day 2, prior to 10 mls of fresh sol'n added; for Streptococcus mutans ATCC 25175 Population Levels T = 6: Day 3, 2 hrs after 10 mls of fresh sol'n added; for Streptococcus mutans ATCC 25175 Population Levels T = 5: Day 3, prior to 10 mls of fresh sol'n added; for Streptococcus mutans ATCC 25175 Population Levels T = 8: Day 4, 2 hrs after 10 mls of fresh sol'n added; for Streptococcus mutans ATCC 25175 Population Levels T = 7: Day 4, prior to 10 mls of fresh sol'n added
Description: as §1

O=C([O-])O.[Na+] [Bicarbonate of Soda solution, Sodium Bicarbonate]
Porphyromonas gingivalis ATCC 3327 Population Levels T = 0 [1]: 2.5 × 10^6 cfu/ml | Porphyromonas gingivalis ATCC 3327 Population Levels T = 2 [1]: 3.1 × 10^5 cfu/ml | Porphyromonas gingivalis ATCC 3327 Population Levels T = 1 [1]: 5.9 × 10^5 cfu/ml | Porphyromonas gingivalis ATCC 3327 Population Levels T = 4 [1]: 1.1 × 10^5 cfu/ml | Porphyromonas gingivalis ATCC 3327 Population Levels T = 3 [1]: 1.2 × 10^5 cfu/ml | Porphyromonas gingivalis ATCC 3327 Population Levels T = 6 [1]: 3.3 × 10^4 cfu/ml | Porphyromonas gingivalis ATCC 3327 Population Levels T = 5 [1]: 2.4 × 10^4 cfu/ml | Porphyromonas gingivalis ATCC 3327 Population Levels T = 8 [1]: 2.8 × 10^3 cfu/ml | Porphyromonas gingivalis ATCC 3327 Population Levels T = 7 [1]: 4.8 × 10^3 cfu/ml | effect against the Porphyromonas gingivalis population (in words) [1]: did not appear to be effective on its own | Streptococcus mutans ATCC 25175 Population Levels T = 0 [2]: 1.5 × 10^7 cfu/ml | Streptococcus mutans ATCC 25175 Population Levels T = 2 [2]: 3.4 × 10^5 cfu/ml | Streptococcus mutans ATCC 25175 Population Levels T = 1 [2]: 1.8 × 10^6 cfu/ml | Streptococcus mutans ATCC 25175 Population Levels T = 4 [2]: 3.2 × 10^4 cfu/ml | Streptococcus mutans ATCC 25175 Population Levels T = 3 [2]: 6.7 × 10^4 cfu/ml | Streptococcus mutans ATCC 25175 Population Levels T = 6 [2]: 2.8 × 10^3 cfu/ml | Streptococcus mutans ATCC 25175 Population Levels T = 5 [2]: 7.7 × 10^3 cfu/ml | Streptococcus mutans ATCC 25175 Population Levels T = 8 [2]: 10 cfu/ml | Streptococcus mutans ATCC 25175 Population Levels T = 7 [2]: 1.2 × 10^2 cfu/ml | reduction in the Streptococcus mutans population ([2]; over the 5 days, Example 4): 6 log

OC[C@@H](O)[C@H](O)[C@@H](O)CO [Xylitol solution, Xylitol]
Porphyromonas gingivalis ATCC 3327 Population Levels T = 0 [1]: 2.6 × 10^6 cfu/ml | Porphyromonas gingivalis ATCC 3327 Population Levels T = 2 [1]: 1.9 × 10^3 cfu/ml | Porphyromonas gingivalis ATCC 3327 Population Levels T = 1 [1]: 9.1 × 10^3 cfu/ml | Porphyromonas gingivalis ATCC 3327 Population Levels T = 4 [1]: <10 cfu/ml | Porphyromonas gingivalis ATCC 3327 Population Levels T = 3 [1]: 20 cfu/ml | Porphyromonas gingivalis ATCC 3327 Population Levels T = 6 [1]: <10 cfu/ml | Porphyromonas gingivalis ATCC 3327 Population Levels T = 5 [1]: <10 cfu/ml | Porphyromonas gingivalis ATCC 3327 Population Levels T = 8 [1]: <10 cfu/ml | Porphyromonas gingivalis ATCC 3327 Population Levels T = 7 [1]: <10 cfu/ml | effect against the Porphyromonas gingivalis population (in words) [1]: reasonably effective | Streptococcus mutans ATCC 25175 Population Levels T = 0 [2]: 1.5 × 10^7 cfu/ml | Streptococcus mutans ATCC 25175 Population Levels T = 2 [2]: 5.2 × 10^5 cfu/ml | Streptococcus mutans ATCC 25175 Population Levels T = 1 [2]: 7.8 × 10^6 cfu/ml | Streptococcus mutans ATCC 25175 Population Levels T = 4 [2]: 2.6 × 10^4 cfu/ml | Streptococcus mutans ATCC 25175 Population Levels T = 3 [2]: 1.0 × 10^5 cfu/ml | Streptococcus mutans ATCC 25175 Population Levels T = 6 [2]: 1.6 × 10^4 cfu/ml | Streptococcus mutans ATCC 25175 Population Levels T = 5 [2]: 1.0 × 10^4 cfu/ml | Streptococcus mutans ATCC 25175 Population Levels T = 8 [2]: <10 cfu/ml | Streptococcus mutans ATCC 25175 Population Levels T = 7 [2]: 30 cfu/ml
